# Measured values as given in patent US20260273028A1, “PEROXIDASE COMPOSITIONS CONTAINING IMPROVED ENHANCING AGENTS” (FLEN HEALTH PHARMA NV, priority 2022, published 2026).
# Tests used:
# Lactoperoxidase = Lactoperoxidase (Bos taurus, UniProt P80025); assay: Lactoperoxidase (LPO) activity, spectrophotometric assay (ABTS); format: biochemical
# Experimental: Lactoperoxidase is a member of the heme peroxidase family of enzymes that, together with a catalytic anion (such as I^−, derived from KI, present in the substrate), will catalyse the oxidation of H2O2, leading to hypojodite (IO^−). This hypojodite is a reactive oxygen species (ROS). To measure the enzymatic activity of LPO, a standard spectrophotometric assay is performed. In brief, H2O2 combined with 2,2′-azino-bis (3-ethylbenzothiazoline-6-sulfonzuur (ABTS) is catalysed by LPO so that the formation of a coloured compound is achieved that can in turn be measured by spectrophotometry. LPO was tested in 3 different concentrations, i.e., 50, 10 and 1 mg/ml. Each reaction mixture was tested in duplo. In the event LPO activity was evaluated in the presence of a potentiator candidate (=a molecule that might be able to augment the enzymatic activity of LPO), the latter was added in a low and high concentration ranging from 100 to 0.1 mg/ml. The blank consisted of the reaction mix in which H2O2 was absent. The absorbance was immediately measured with a plate reader (Spectramax ID3, Molecular Devices) every 12 seconds for 5 minutes at 20° C. For each combination evaluated, this test was repeated at least 2 times. Results were further analysed in MS Excel and expressed as U/g. Mean blank-corrected data±SD were plotted. Statistical significance compared to the combination without potentiator candidate (reference) was calculated using students' t-tests. Significance is achieved when the obtained p-value is lower than 0,05. Significance levels were defined as p<0.05=*; p<0.01=** and p<0.001=***.
# [1] = system: Candida albicans ATCC®10231™; assay: Absolute microbial counts in function of enzyme solution concentration; format: cell-based; conditions: enhancer 0.01%; 0.005%-0.0000391% (v/v) GOX+LPO
# [2] = system: Candida albicans ATCC®10231™; assay: MIC determination, broth microdilution, GOX+LPO with potentiator candidate; format: cell-based; conditions: C. albicans; enhancer 0.01%
# [3] = system: Candida albicans ATCC®10231™; assay: MBC determination, broth microdilution with CFU enumeration; format: cell-based; conditions: C. albicans; enhancer 0.01%
Structure (SMILES),LPO activity compared to reference (Lactoperoxidase; enhancer 0.1 mg/ml),LPO activity compared to reference (Lactoperoxidase; enhancer 1 mg/ml),MIC: GOX+LPO enzyme solution needed to completely inhibit growth [2],increase in MIC compared to reference [2] [×],increase in MIC compared to the enhancing molecule guaiacol [2] [×],reduction in absolute C. albicans counts compared to reference and guaiacol solution [1],MBC: GOX+LPO enzyme solution needed [3],increase in MBC compared to reference [3] [×],increase in MBC compared to the enhancing molecule guaiacol [3] [×],"LPO activity compared to reference (Lactoperoxidase; enhancer 100 mg/ml, reference = no potentiator candidate)"
"NC(=O)C[C@H](N)C(=O)O [Asparagine, asparagine]",significant increase,significant increase,–,–,–,–,–,–,–,–
"NC(=O)CC[C@H](N)C(=O)O [Glutamine, glutamine]",significant increase,significant increase,–,–,–,–,–,–,–,–
"N[C@@H](CO)C(=O)O [Serine, serine]",–,–,–,–,–,stronger reduction,0.0000391 % (v/v),4,2,significant increase

# Continued, in another order:
LPO activity compared to reference (Lactoperoxidase; enhancer 0.1 mg/ml),LPO activity compared to reference (Lactoperoxidase; enhancer 1 mg/ml),MIC: GOX+LPO enzyme solution needed to completely inhibit growth [2],increase in MIC compared to reference [2] [×],increase in MIC compared to the enhancing molecule guaiacol [2] [×],Structure (SMILES),reduction in absolute C. albicans counts compared to reference and guaiacol solution [1],MBC: GOX+LPO enzyme solution needed [3],increase in MBC compared to reference [3] [×],increase in MBC compared to the enhancing molecule guaiacol [3] [×],"LPO activity compared to reference (Lactoperoxidase; enhancer 100 mg/ml, reference = no potentiator candidate)"
–,–,0.0000391 % (v/v),4,2,"CC[C@H](C)[C@H](N)C(=O)O [Isoleucine, isoleucine]",stronger reduction,0.0000391 % (v/v),4,2,–
significant increase,significant increase,–,–,–,"C[C@@H](O)[C@H](N)C(=O)O [Threonine, threonine]",–,–,–,–,–
